Experimental data from PubChem BioAssay (NCI).
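Growth conditions: 96-well plates. Treatment: test compound, 48 hours, 5 concentrations. Analysis: linear interpolation between bracketing concentrations; unreached endpoints set to highest concentration. The concentration for 50% growth inhibition is given as GI50. TGI is the concentration that stops growth completely.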

Each compound was assayed on SNB-75 CNS (assay: inhibition of tumour cell growth, NCI panel, 48 h).

Compound | TGI [µM] | GI50 [µM]
CCCC(=O)Nc1cc2c3c(c1)CCCN3CCC2 | > 10 | 
CC(C)Oc1ccc2cc(-c3nn(CC4CCNCC4)c4ncnc(N)c34)ccc2c1 | 15.2 | 1.09
O=C1/C(=C/c2cccc(Cl)c2Cl)N=C(c2ccccc2)N1C1CC1 | 15.9 | 6.06
Cc1c2c(C#N)nccc2c(C)c2c1c1ccccc1n2Cc1ccccc1 | > 100 | 
COc1cc(Cn2c(-c3ccccc3)c(Cl)c3c2-c2oncc2CC3)cc(OC)c1 | 75.3 | 5.03
CN(C)C(n1cc2c(c1)-c1ccc(Cl)cc1C(c1ccccc1F)=NC2)n1cc2c(c1)-c1ccc(Cl)cc1C(c1ccccc1F)=NC2 | 77.2 | 
CCOc1ccc(NC(=O)CC#N)cc1 | > 100 | 
O=C(/C=C/c1cccc2ccccc12)c1ccccc1Cl | 30.5 | 
COc1ccc(Nc2nnc(-c3cc(O)ccc3O)s2)cc1 | > 50 | 9.45
O=C1/C(=C/c2ccc(Cl)cc2)CCC1CCN1CCOCC1 (centres undefined) | > 100 | 
CCOC(=O)Nc1ccc(C)c(NC(=O)OCC)c1 | > 100 | 
C1CN2CCN3CCN4CCN1[P+]243 | > 100 | 

These compounds were tested on BT-549 breast (assay: inhibition of tumour cell growth, NCI panel, 48 h).

Compound | GI50 [µM] | TGI [µM]
COc1ccc(C(=O)/C=C/c2cc(-c3cc(OC)c(OC)c(OC)c3)n[nH]2)cc1OC | 1.44 | 2.9
CCCC(=O)Nc1cc2c3c(c1)CCCN3CCC2 |  | > 10
COc1cc(-c2cc(-c3cc4c([nH]c5ccccc54)c(-c4cc(OC)c(OC)c(OC)c4)n3)cc(-c3ccccc3)n2)cc(OC)c1OC | 6.74 | 91.2
CC(C)Oc1ccc2cc(-c3nn(CC4CCNCC4)c4ncnc(N)c34)ccc2c1 | 9.6 | 22
O=C1/C(=C/c2cccc(Cl)c2Cl)N=C(c2ccccc2)N1C1CC1 | 9.84 | 24.1
COc1cc2c(cc1OCCCNC(=O)c1cccc3c(=O)c4ccccc4[nH]c13)N=C[C@@H]1CCCN1C2=O | < 0.01 | < 0.0437
COc1ccc(Nc2nnc(-c3cc(O)ccc3O)s2)cc1 | 14.9 | 43.6

The compounds below were run on IGROV1 ovarian (assay: inhibition of tumour cell growth, NCI panel, 48 h).

Compound | GI50 [µM] | TGI [µM]
COc1ccc(C(=O)/C=C/c2cc(-c3cc(OC)c(OC)c(OC)c3)n[nH]2)cc1OC | 1.8 | 3.41
CCCC(=O)Nc1cc2c3c(c1)CCCN3CCC2 |  | > 10
COc1cc(-c2cc(-c3cc4c([nH]c5ccccc54)c(-c4cc(OC)c(OC)c(OC)c4)n3)cc(-c3ccccc3)n2)cc(OC)c1OC | 6.44 | > 100
CC(C)Oc1ccc2cc(-c3nn(CC4CCNCC4)c4ncnc(N)c34)ccc2c1 | 11.1 | 24.8
O=C1/C(=C/c2cccc(Cl)c2Cl)N=C(c2ccccc2)N1C1CC1 | 19.7 | > 50
Cc1c2c(C#N)nccc2c(C)c2c1c1ccccc1n2Cc1ccccc1 |  | > 100
COc1cc(Cn2c(-c3ccccc3)c(Cl)c3c2-c2oncc2CC3)cc(OC)c1 | 4.89 | 21.7
CN(C)C(n1cc2c(c1)-c1ccc(Cl)cc1C(c1ccccc1F)=NC2)n1cc2c(c1)-c1ccc(Cl)cc1C(c1ccccc1F)=NC2 |  | > 100
COc1cc2c(cc1OCCCNC(=O)c1cccc3c(=O)c4ccccc4[nH]c13)N=C[C@@H]1CCCN1C2=O |  | > 33.5
CCOc1ccc(NC(=O)CC#N)cc1 |  | > 100
O=C(/C=C/c1cccc2ccccc12)c1ccccc1Cl |  | 31
COc1ccc(Nc2nnc(-c3cc(O)ccc3O)s2)cc1 | 28.9 | > 50
O=C1/C(=C/c2ccc(Cl)cc2)CCC1CCN1CCOCC1 (centres undefined) |  | > 100
CCOC(=O)Nc1ccc(C)c(NC(=O)OCC)c1 |  | > 100
C1CN2CCN3CCN4CCN1[P+]243 |  | > 100

What follows are compounds tested on SR leukemia (assay: inhibition of tumour cell growth, NCI panel, 48 h).

Compound | GI50 [µM] | TGI [µM]
COc1ccc(C(=O)/C=C/c2cc(-c3cc(OC)c(OC)c(OC)c3)n[nH]2)cc1OC | 0.278 | > 100
CCCC(=O)Nc1cc2c3c(c1)CCCN3CCC2 |  | > 10
COc1cc(-c2cc(-c3cc4c([nH]c5ccccc54)c(-c4cc(OC)c(OC)c(OC)c4)n3)cc(-c3ccccc3)n2)cc(OC)c1OC | 3.56 | > 100
CC(C)Oc1ccc2cc(-c3nn(CC4CCNCC4)c4ncnc(N)c34)ccc2c1 | 1.53 | 4.44
O=C1/C(=C/c2cccc(Cl)c2Cl)N=C(c2ccccc2)N1C1CC1 | 21.5 | > 50
Cc1c2c(C#N)nccc2c(C)c2c1c1ccccc1n2Cc1ccccc1 |  | > 100
COc1cc(Cn2c(-c3ccccc3)c(Cl)c3c2-c2oncc2CC3)cc(OC)c1 | 2.92 | 15.5
CN(C)C(n1cc2c(c1)-c1ccc(Cl)cc1C(c1ccccc1F)=NC2)n1cc2c(c1)-c1ccc(Cl)cc1C(c1ccccc1F)=NC2 |  | > 100
COc1cc2c(cc1OCCCNC(=O)c1cccc3c(=O)c4ccccc4[nH]c13)N=C[C@@H]1CCCN1C2=O |  | > 45.4
CCOc1ccc(NC(=O)CC#N)cc1 |  | > 100
O=C(/C=C/c1cccc2ccccc12)c1ccccc1Cl |  | 11.3
COc1ccc(Nc2nnc(-c3cc(O)ccc3O)s2)cc1 | 1.41 | 34.2
O=C1/C(=C/c2ccc(Cl)cc2)CCC1CCN1CCOCC1 (centres undefined) |  | > 100
CCOC(=O)Nc1ccc(C)c(NC(=O)OCC)c1 |  | > 100
C1CN2CCN3CCN4CCN1[P+]243 |  | > 100

These compounds were tested on MCF7 breast (assay: inhibition of tumour cell growth, NCI panel, 48 h).

Compound | GI50 [µM] | TGI [µM]
COc1ccc(C(=O)/C=C/c2cc(-c3cc(OC)c(OC)c(OC)c3)n[nH]2)cc1OC | 0.482 | 1.95
CCCC(=O)Nc1cc2c3c(c1)CCCN3CCC2 |  | > 10
COc1cc(-c2cc(-c3cc4c([nH]c5ccccc54)c(-c4cc(OC)c(OC)c(OC)c4)n3)cc(-c3ccccc3)n2)cc(OC)c1OC | 3.56 | 20.8
CC(C)Oc1ccc2cc(-c3nn(CC4CCNCC4)c4ncnc(N)c34)ccc2c1 | 5.59 | 20.1
O=C1/C(=C/c2cccc(Cl)c2Cl)N=C(c2ccccc2)N1C1CC1 | 7.98 | 19.2
Cc1c2c(C#N)nccc2c(C)c2c1c1ccccc1n2Cc1ccccc1 |  | > 100
COc1cc(Cn2c(-c3ccccc3)c(Cl)c3c2-c2oncc2CC3)cc(OC)c1 | 3.81 | > 100
CN(C)C(n1cc2c(c1)-c1ccc(Cl)cc1C(c1ccccc1F)=NC2)n1cc2c(c1)-c1ccc(Cl)cc1C(c1ccccc1F)=NC2 |  | > 100
COc1cc2c(cc1OCCCNC(=O)c1cccc3c(=O)c4ccccc4[nH]c13)N=C[C@@H]1CCCN1C2=O | < 0.0242 | 13.8
COc1ccc(Nc2nnc(-c3cc(O)ccc3O)s2)cc1 | 11.4 | 35.4
CCOC(=O)Nc1ccc(C)c(NC(=O)OCC)c1 |  | > 100

Each compound was assayed on MALME-3M melanoma (assay: inhibition of tumour cell growth, NCI panel, 48 h).

Compound | GI50 [µM] | TGI [µM]
COc1ccc(C(=O)/C=C/c2cc(-c3cc(OC)c(OC)c(OC)c3)n[nH]2)cc1OC | 1.99 | 3.68
CCCC(=O)Nc1cc2c3c(c1)CCCN3CCC2 |  | > 10
COc1cc(-c2cc(-c3cc4c([nH]c5ccccc54)c(-c4cc(OC)c(OC)c(OC)c4)n3)cc(-c3ccccc3)n2)cc(OC)c1OC | 6.3 | 70.9
